“And” between values parts separate entries of the source, which are not always exact repeats. Equal values may be shown once. Inconclusive results and toxic doses are left out.
Test system: CD2F1 mice, L1210 leukemia ip, survival T/C
Assay: NCI In Vivo Anticancer Drug Screen. Data for tumor model L1210 Leukemia (intraperitoneal) in CD2F1 (CDF1) mice
Conditions: higher = longer survival
In short: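 Antitumor effect is scored in animals hosting a serially transplanted tumor. Values compare compound-dosed animals against vehicle-only controls as a simple quotient.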

[1] = endpoint: mean survival time, dose: 200.0 mg/kg/injection, schedule: Q01DX009 (ip), vehicle: saline
[2] = endpoint: mean survival time, dose: 400.0 mg/kg/injection, schedule: Q01DX009 (ip), vehicle: saline
[3] = endpoint: mean survival time, dose: 100.0 mg/kg/injection, schedule: Q04DX003 (ip), vehicle: saline with Tween-80
[4] = endpoint: mean survival time, dose: 200.0 mg/kg/injection, schedule: Q04DX003 (ip), vehicle: saline with Tween-80
[5] = endpoint: mean survival time, dose: 400.0 mg/kg/injection, schedule: Q04DX003 (ip), vehicle: saline with Tween-80
[6] = endpoint: mean survival time, dose: 100.0 mg/kg/injection, schedule: Q04DX002 (ip), vehicle: saline
[7] = endpoint: mean survival time, dose: 200.0 mg/kg/injection, schedule: Q04DX002 (ip), vehicle: saline
[8] = endpoint: mean survival time, dose: 400.0 mg/kg/injection, schedule: Q04DX002 (ip), vehicle: saline
[9] = endpoint: mean survival time, dose: 100.0 mg/kg/injection, schedule: Q01DX001 (ip), vehicle: saline with Tween-80
[10] = endpoint: mean survival time, dose: 200.0 mg/kg/injection, schedule: Q01DX001 (ip), vehicle: saline with Tween-80
[11] = endpoint: mean survival time, dose: 400.0 mg/kg/injection, schedule: Q01DX001 (ip), vehicle: saline with Tween-80

SMILES: OCc1ccccc1OC1OC(CO)C(O)C(O)C1O (centres undefined)
- T/C (endpoint: mean survival time, dose: 50.0 mg/kg/injection, schedule: Q01DX009 (ip), vehicle: Klucel (hydroxypropylcellulose) (HPC)): 96 % of control
- T/C (endpoint: mean survival time, dose: 100.0 mg/kg/injection, schedule: Q01DX009 (ip), vehicle: Klucel (hydroxypropylcellulose) (HPC)): 101 % of control
- T/C (endpoint: mean survival time, dose: 200.0 mg/kg/injection, schedule: Q01DX009 (ip), vehicle: Klucel (hydroxypropylcellulose) (HPC)): 108 % of control

SMILES: CCCCOC(=O)c1cc([N+](=O)[O-])c(Sc2ncnc3nc[nH]c23)c([N+](=O)[O-])c1
- T/C (endpoint: mean survival time, dose: 0.63 mg/kg/injection, schedule: Q01DX005 (ip), vehicle: other): 106 % of control
- T/C (endpoint: mean survival time, dose: 1.25 mg/kg/injection, schedule: Q01DX005 (ip), vehicle: other): 104 % of control
- T/C (endpoint: mean survival time, dose: 2.5 mg/kg/injection, schedule: Q01DX005 (ip), vehicle: other): 106 % of control
- T/C (endpoint: mean survival time, dose: 5.0 mg/kg/injection, schedule: Q01DX005 (ip), vehicle: other): 106 % of control
- T/C (endpoint: mean survival time, dose: 10.0 mg/kg/injection, schedule: Q01DX005 (ip), vehicle: other): 114 % of control
- T/C (endpoint: mean survival time, dose: 15.0 mg/kg/injection, schedule: Q01DX005 (ip), vehicle: other): 120 % of control

SMILES: NC(COC(c1ccccc1)(c1ccccc1)c1ccccc1)C(=O)O (centres undefined)
- T/C (endpoint: mean survival time, dose: 25.0 mg/kg/injection, schedule: Q01DX009 (ip), vehicle: saline): 103 % of control
- T/C (endpoint: mean survival time, dose: 50.0 mg/kg/injection, schedule: Q01DX009 (ip), vehicle: saline): 113 % of control
- T/C [1]: 150 % of control
- T/C (endpoint: mean survival time, dose: 300.0 mg/kg/injection, schedule: Q01DX009 (ip), vehicle: saline): 122 % of control
- T/C [2]: 111 % of control

SMILES: ClCCCN1CCN(CCCl)CC1
- T/C (endpoint: median survival time, dose: 2.5 mg/kg/injection, schedule: Q01DX009 (ip), vehicle: saline): 113 % of control and 115 % of control
- T/C (endpoint: median survival time, dose: 10.0 mg/kg/injection, schedule: Q01DX009 (ip), vehicle: saline): 155 % of control and 177 % of control and 209 % of control
- T/C (endpoint: median survival time, dose: 20.0 mg/kg/injection, schedule: Q01DX009 (ip), vehicle: saline): 109 % of control
- T/C (endpoint: median survival time, dose: 40.0 mg/kg/injection, schedule: Q01DX009 (ip), vehicle: saline): 88 % of control and 90 % of control

SMILES: NC1CCCCC1.[O]=[Cr](=[O])([OH])[OH]
- T/C (endpoint: mean survival time, dose: 6.25 mg/kg/injection, schedule: Q04DX003 (ip), vehicle: saline): 103 % of control
- T/C (endpoint: mean survival time, dose: 12.5 mg/kg/injection, schedule: Q04DX003 (ip), vehicle: saline): 98 % of control
- T/C (endpoint: mean survival time, dose: 25.0 mg/kg/injection, schedule: Q04DX003 (ip), vehicle: saline): 110 % of control

SMILES: CC(O)C1OC(n2cnc3c(ncn3C3OC(C(C)O)C(O)C3O)c2=O)C(O)C1O (centres undefined)
- T/C (endpoint: mean survival time, dose: 10.63 mg/kg/injection, schedule: Q01DX005 (ip), vehicle: water): 102 % of control
- T/C (endpoint: mean survival time, dose: 21.25 mg/kg/injection, schedule: Q01DX005 (ip), vehicle: water): 98 % of control
- T/C (endpoint: mean survival time, dose: 42.5 mg/kg/injection, schedule: Q01DX005 (ip), vehicle: water): 102 % of control
- T/C (endpoint: mean survival time, dose: 85.0 mg/kg/injection, schedule: Q01DX005 (ip), vehicle: water): 101 % of control
- T/C (endpoint: mean survival time, dose: 170.0 mg/kg/injection, schedule: Q01DX005 (ip), vehicle: water): 108 % of control

SMILES: O=C(Nc1ccccc1)OCCc1c2ccccc2nc2ccccc12
- T/C (endpoint: mean survival time, dose: 100.0 mg/kg/injection, schedule: Q04DX002 (ip), vehicle: saline with Tween-80): 94 % of control
- T/C (endpoint: mean survival time, dose: 200.0 mg/kg/injection, schedule: Q04DX002 (ip), vehicle: saline with Tween-80): 94 % of control
- T/C (endpoint: mean survival time, dose: 400.0 mg/kg/injection, schedule: Q04DX002 (ip), vehicle: saline with Tween-80): 90 % of control and 97 % of control

SMILES: [Co+2].[NH-]c1ccccc1C(=O)O.[NH-]c1ccccc1C(=O)O
- T/C [3]: 89 % of control
- T/C [4]: 91 % of control
- T/C [5]: 91 % of control

SMILES: CC(C)(C)N[P+](Cc1ccc(C[P+](NC(C)(C)C)(NC(C)(C)C)c2ccccc2)cc1)(NC(C)(C)C)c1ccccc1
- T/C (endpoint: mean survival time, dose: 1.56 mg/kg/injection, schedule: Q04DX003 (ip), vehicle: saline): 109 % of control
- T/C (endpoint: mean survival time, dose: 3.13 mg/kg/injection, schedule: Q04DX003 (ip), vehicle: saline): 95 % of control

SMILES: COc1cc(C)c(Br)c(OC)c1
- T/C [3]: 92 % of control
- T/C [4]: 99 % of control
- T/C [5]: 99 % of control

SMILES: CCOP(=O)(OCC)c1ccccc1
- T/C [6]: 96 % of control
- T/C [7]: 96 % of control
- T/C [8]: 112 % of control

SMILES: NNC(=O)CCCO
- T/C (endpoint: mean survival time, dose: 100.0 mg/kg/injection, schedule: Q01DX009 (ip), vehicle: saline): 102 % of control
- T/C [1]: 101 % of control
- T/C [2]: 102 % of control

SMILES: O=C(NC1CCC(NC(=O)N2CC2)CC1)N1CC1 (centres undefined)
- T/C (endpoint: mean survival time, dose: 6.75 mg/kg/injection, schedule: Q01DX001 (ip), vehicle: carboxymethylcellulose (CMC)): 164 % of control
- T/C (endpoint: mean survival time, dose: 10.0 mg/kg/injection, schedule: Q01DX001 (ip), vehicle: carboxymethylcellulose (CMC)): 185 % of control
- T/C (endpoint: mean survival time, dose: 15.0 mg/kg/injection, schedule: Q01DX001 (ip), vehicle: carboxymethylcellulose (CMC)): 102 % of control

SMILES: C[N+](C)(CCCCCCCCCC[N+](C)(C)CC(=O)c1ccccc1)CC(=O)c1ccccc1
- T/C (endpoint: mean survival time, dose: 0.5 mg/kg/injection, schedule: Q04DX003 (ip), vehicle: saline): 101 % of control
- T/C (endpoint: mean survival time, dose: 1.0 mg/kg/injection, schedule: Q04DX003 (ip), vehicle: saline): 94 % of control
- T/C (endpoint: mean survival time, dose: 2.0 mg/kg/injection, schedule: Q04DX003 (ip), vehicle: saline): 95 % of control

SMILES: O=NN(CCCl)C(=S)NC1CCCCC1
- T/C (endpoint: mean survival time, dose: 6.25 mg/kg/injection, schedule: Q01DX001 (ip), vehicle: other): 104 % of control
- T/C (endpoint: mean survival time, dose: 12.5 mg/kg/injection, schedule: Q01DX001 (ip), vehicle: other): 211 % of control
- T/C (endpoint: mean survival time, dose: 25.0 mg/kg/injection, schedule: Q01DX001 (ip), vehicle: other): 246 % of control and 403 % of control
- T/C (endpoint: mean survival time, dose: 50.0 mg/kg/injection, schedule: Q01DX001 (ip), vehicle: other): 295 % of control and 523 % of control

SMILES: c1ccc(OCC2(N3CCCCC3)CCCC2)cc1
- T/C (endpoint: mean survival time, dose: 25.0 mg/kg/injection, schedule: Q04DX002 (ip), vehicle: saline with Tween-80): 103 % of control
- T/C (endpoint: mean survival time, dose: 50.0 mg/kg/injection, schedule: Q04DX002 (ip), vehicle: saline with Tween-80): 108 % of control

SMILES: COc1ccc(NC(=O)c2ccc(S(=O)(=O)F)cc2)cc1
- T/C [9]: 97 % of control
- T/C [10]: 95 % of control
- T/C [11]: 94 % of control

SMILES: CCCc1nc(/N=N/N(C)C)c(C(N)=O)[nH]1
- T/C (endpoint: mean survival time, dose: 75.0 mg/kg/injection, schedule: Q01DX001 (ip), vehicle: saline): 114 % of control
- T/C (endpoint: mean survival time, dose: 150.0 mg/kg/injection, schedule: Q01DX001 (ip), vehicle: saline): 120 % of control
- T/C (endpoint: mean survival time, dose: 300.0 mg/kg/injection, schedule: Q01DX001 (ip), vehicle: saline): 122 % of control

SMILES: Nc1ncnc2c1ncn2C1OC(CO)C2NP(=O)(N(CCCl)CCCl)OC21 (centres undefined)
- T/C (endpoint: mean survival time, dose: 15.6 mg/kg/injection, schedule: Q01DX001 (ip), vehicle: distilled water + Tween-80): 98 % of control and 101 % of control
- T/C (endpoint: mean survival time, dose: 31.3 mg/kg/injection, schedule: Q01DX001 (ip), vehicle: distilled water + Tween-80): 101 % of control
- T/C (endpoint: mean survival time, dose: 62.5 mg/kg/injection, schedule: Q01DX001 (ip), vehicle: distilled water + Tween-80): 101 % of control

SMILES: c1ccc(C(c2ccccc2)[n+]2ccccc2)cc1
- T/C (endpoint: mean survival time, dose: 5.0 mg/kg/injection, schedule: Q01DX009 (ip), vehicle: saline): 98 % of control
- T/C (endpoint: mean survival time, dose: 5.0 mg/kg/injection, schedule: Q04DX003 (ip), vehicle: saline): 104 % of control
- T/C (endpoint: mean survival time, dose: 10.0 mg/kg/injection, schedule: Q01DX009 (ip), vehicle: saline): 102 % of control
- T/C (endpoint: mean survival time, dose: 10.0 mg/kg/injection, schedule: Q04DX003 (ip), vehicle: saline): 103 % of control
- T/C (endpoint: mean survival time, dose: 20.0 mg/kg/injection, schedule: Q04DX003 (ip), vehicle: saline): 109 % of control

SMILES: C(N=Nc1ccccc1)=C(c1ccccc1)c1ccccc1
- T/C (endpoint: mean survival time, dose: 100.0 mg/kg/injection, schedule: Q04DX002 (ip), vehicle: other): 107 % of control
- T/C (endpoint: mean survival time, dose: 200.0 mg/kg/injection, schedule: Q04DX002 (ip), vehicle: other): 103 % of control
- T/C (endpoint: mean survival time, dose: 400.0 mg/kg/injection, schedule: Q04DX002 (ip), vehicle: other): 103 % of control

SMILES: O/N=C/c1cccc(CC(O)(C(F)(F)F)C(F)(F)F)n1
- T/C [3]: 97 % of control
- T/C [4]: 95 % of control
- T/C [5]: 95 % of control

SMILES: CN1CC(=O)C(=N)C1=S
- T/C [9]: 90 % of control
- T/C [10]: 93 % of control
- T/C [11]: 90 % of control

SMILES: NC(=O)C1(C(N)=O)CC1
- T/C [6]: 108 % of control
- T/C [7]: 104 % of control
- T/C [8]: 100 % of control

SMILES: CC(C)c1ccc(C(=O)C(O)c2ccc(C(C)C)cc2)cc1 (centres undefined)
- T/C [3]: 102 % of control
- T/C [4]: 102 % of control
- T/C [5]: 95 % of control
